For series [1], the system named is Rat hippocampal nerve cells. In words: ionomycin-induced death of cultured rat hippocampal nerve cells (WST-8 cell survival rate). The conditions noted are these: for inhibition of cell death induced by ionomycin at a single concentration: each 0.1 μM, 3 μM ionomycin, FIGS. 6a and 6b.
Procedure: The solution was used after dilution to predetermined concentrations with distilled water for injection (JP, Otsuka Pharmaceutical) containing 1 mg/mL of bovine serum albumin (SIGMA). Rat type ghrelin (Peptide Institute) was used after dilution to predetermined concentrations with water for injection containing 1 mg/mL of bovine serum albumin. Other reagents used were L-15 culture medium, D-MEM/F-12 culture medium, MEM culture medium, Neuro Basal culture medium, B-27 supplement, horse serum, newborn calf serum, L-glutamine (all of the foregoing products of GIBCO), L-cysteine, ionomycin, calf serum albumin, DNase I (all of the foregoing products of SIGMA), glucose, viable cell count determination reagent SF (all of the foregoing products of Nacalai tesque), and papain (Worthington Biochemical).
Animals used were fetal rats on the 20th fetal day gestated in Wistar/ST definitively pregnant rats (15-18 days pregnant, Japan SLC).
Rat hippocampal nerve cells were isolated in accordance with the method of Hatanaka et al. (Hatanaka, H. and Tsukui, H., Dev. Brain. Res. 30(1986)47). Brains were removed from Wistar/ST fetal rats (20 fetal days), and soaked in cold L-15 medium. The meninges were ablated under microscope, and the hippocampus was cut out. Hippocampal tissue was transferred into a test tube containing the L-15 medium, and the test tube was centrifuged for 3 minutes at 700 rpm. Then, the supernatant was removed, and phosphate buffer (pH 7.2) containing papain (0.5 mg/mL), bovine serum albumin (0.2 mg/mL), cysteine (0.2 mg/mL), glucose (5 mg/mL) and DNase I (0.01%) was added, followed by incubating the mixture for 15 minutes at 37° C. Then, horse serum was added, and the mixture was centrifuged for 3 minutes at 700 rpm. Then, the supernatant was removed, D-MEM/F-12 medium was added, and the cells were dispersed by pipetting. After centrifugation for 5 minutes at 700 rpm, the dispersed cells were redispersed in D-MEM/F-12 medium containing 5% newborn calf serum and 5% horse serum, and inoculated in a polyethyleneimine-coated 48-well culture plate (Nunc) at a rate of 4×10^5 cells/cm^2. The cells were cultured in a culture incubator (37° C., 5% CO2-95% air). On the 2nd day of culturing, the culture medium was replaced by Neuro Basal medium containing 2 mM of glutamine and B-27 supplement. Then, the medium was replaced at intervals of 4 days.
Cells on the 14th day of culturing were used in experiments. The culture medium was replaced by a B-27-free MEM medium, and the cells were incubated for 30 minutes. Then, a solvent (dimethyl sulfoxide) and a test compound were added, and the system was incubated for 30 minutes (procedure 1). Then, 3 μM of ionomycin was added, and the mixture was incubated for 30 minutes (procedure 2). The culture medium was washed, and replaced by Neuro Basal medium containing B-27 supplement, and the system was cultured for 18 hours (procedure 3). In examining the effect of post-treatment, the solvent and the test compound were not added in procedure 1, but added 30 minutes after replacement of the medium in procedure 3.
Series [2] in a line: influence on blood pressure and heart rate. The conditions noted are these: in vivo.
The subject of series [3] is rat ischemia-reperfusion cerebral infarction models. In words: rat ischemia-reperfusion cerebral infarction model after transient obstruction of middle cerebral artery. Type of series: in vivo. The protocol:
Preventive and therapeutic effect of KP-102 in rat ischemia-reperfusion cerebral infarction models after transient obstruction of middle cerebral artery
The effect of the growth hormone secretion promoting substance was evaluated using ischemia-reperfusion cerebral infarction models, which are general pathological models of diseases involving degeneration or death of nerve cells, such as cerebral ischemia, cerebral infarction and cerebral edema. KP-102 was used as a typical example of the growth hormone secretion promoting substance.
KP-102 (synthetic product) was dissolved in physiological saline (JP) to a concentration of 24 μg/ml. Other reagents used were halothane (JP: Takeda Chem. Ind.), triphenyltetrazolium chloride (TTC, Nacalai tesque), Dulbecco PBS(−) (Nissui Pharmaceutical) and low viscosity dental impression silicone (XANTOPRENRL, imported by Hereus Dental Material, Osaka). A 1% TTC solution was prepared by dissolving TTC in an isotonic phosphate buffer solution (pH 7.4) which had been prepared by dissolving PBS(−) powder in distilled water.
Male Wistar rats (Charles River Japan, INC.), 9 weeks old and weighing about 300 g, were used as experimental animals.
Obstruction of the middle cerebral artery was performed in accordance with the method of Koizumi et al. (Jpn. J. Stroke (1986)8:1-8) and the method of Longa et al. (Stroke (1989)20:84-91). Anesthesia was performed with 2% halothane in a 30% oxygen/70% nitrous oxide mixed gas. A cannula for administration of a test material had been inserted into the right femoral vein, and the other end of the cannula delivered to the poll. After several hours or more, the animals were anesthetized again, and set in a supine position. A median incision of the neck was made, and connective tissues around the right common carotid artery, the internal carotid artery, and the external carotid artery were ablated. The distal end of the external carotid artery and the external carotid artery were ligated with a suture, and blood flow in the common carotid artery was blocked with a clip. The following procedure was performed, with measures for prevention of bleeding being taken: A small incision was made in the external carotid artery, and a plug comprising a 5 mm front end of a surgical 4-0 nylon thread coated with dental silicone was inserted toward the internal carotid artery as far as a site where a slight resistance was felt. As a result, the middle cerebral artery (hereinafter referred to as MCA) was occluded, at its point of origin, with the plug. The plug was fixed in the internal carotid artery with a clip. The incision wound was closed and anesthesia was stopped to awake the animals. Anesthesia was performed again 70 minutes after MCA occlusion, the plug was detached 75 minutes later to restore blood flow in MCA, and the end of the external carotid artery proximal to the incision site was closed for prevention of bleeding. Blood flow in the common carotid artery was restored 10 minutes later. The incision site of the skin was closed with a Michel needle, and the animals were recovered from anesthesia.
The cannula for administration of the test material was connected to a free moving device (TCS2-21, Tsumura). […]

Where [4] appears, read: KP-102 total 0.16 mg/kg i.v., 72 hours after reperfusion, FIG. 1.

SMILES strings stand for the structures. Non-standard residues stand in square brackets, D forms with d. Residues, ends and D or L forms follow the SMILES beside them. dTrp(2-Me) = Cc1[nH]c2ccccc2c1C[C@@H](N)C(=O)O; d2Nal = N[C@H](Cc1ccc2ccccc2c1)C(=O)O

For `C[C@H](NC(=O)[C@@H](Cc1ccc2ccccc2c1)NC(=O)[C@@H](C)N)C(=O)N[C@@H](Cc1c[nH]c2ccccc12)C(=O)N[C@H](Cc1ccccc1)C(=O)N[C@@H](CCCCN)C(N)=O` [KP-102, D-alanyl-3-(2-naphthalenyl)-D-alanyl-L-alanyl-L-tryptophyl-D-phenylalanyl-L-lysineamide] (H-[dA][d2Nal]AW[dF]K-NH2), the “inhibition of cell death, compound applied after ionomycin treatment” value in series [1] (applied 30 minutes after replacement of the ionomycin-treated culture medium, FIG. 4b) is “cell death inhibiting action was also confirmed”. Moreover, the “inhibition of cell death induced by 3 μM of ionomycin, compound applied 30 minutes before ionomycin” value in series [1] (concentrations of 0.01 to 1 μM, dose-dependent, FIG. 4a) is recorded as “inhibited cell death”. Besides, in series [2], the “influence on blood pressure” value was “does not influence” and the “influence on heart rate” value is recorded as “does not influence”. Further, in series [3] (setting [4]), the “cerebral infarct size, cortex” value is “effect of shrinking the infarct was observed” and the “cerebral infarct size, medulla” value was “effect of shrinking the infarct was observed”. In addition, the “percent cerebral infarction volume for the entire cerebrum” value in series [3] (vs control group, KP-102 total 0.16 mg/kg i.v. infusion beginning 30 minutes after MCA occlusion, 72 hours after reperfusion, FIG. 1, P<0.05 Mann-Whitney) is reported as “significantly smaller”. Moreover, in series [3] (vs control group, KP-102 total 0.16 mg/kg i.v., 72 hours after reperfusion, FIG. 2, no significant differences, P=0.087), the percent edema result is on record as “tendency toward suppression”. The “score of neurologic symptoms” value in series [3] (vs control group, KP-102 total 0.16 mg/kg i.v., after reperfusion, normal score 33 points, FIG. 3, P<0.05) is listed as “significantly higher”.

Consider `NCC(O)CNC(=O)[C@@H](Cc1ccc2ccccc2c1)NC(=O)CCN1C(=O)c2ccccc2CCc2ccccc21` (stereo partly drawn) [S-37555, N-[1(R)-(3-amino-2-hydroxy-propylcarbamoyl)-2-yl-ethyl]-3-(6-oxo-11,12-dihydro-6H-dibenzo[b,f]azocinn-5-yl)-propionamide], for which, in series [1], the “inhibition of cell death induced by ionomycin at a single concentration” value (“inhibition … at a single concentration” below) is reported as “clear action of inhibiting cell death”.

In the case of `CC(C)(C)C(=O)N1CCC[C@H]1C(=O)N[C@H](Cc1ccc2ccccc2c1)C(=O)NCC(O)CN` (stereo partly drawn) [S-38855, N-(3-amino-2-hydroxypropyl)-2(R)-[1-(2,2-dimethylpropionyl)pyrrolidine-2(S)-carbonylamino]-3-naphthalen-2-yl-propionamide], in series [1], the “inhibition … at a single concentration” value is “clear action of inhibiting cell death”.

Take `CCC(CC)C(=O)N1CCC[C@@H]1C(=O)N[C@@H](Cc1ccc2ccccc2c1)C(=O)NCC(O)CN` (stereo partly drawn) [S-39100, N-(3-amino-2-hydroxypropyl)-2(S)-[1-(2-ethylbutyryl)pyrrolidine-2(R)-carbonylamino]-3-naphthalen-2-yl-propionamide]: in series [1], the “inhibition … at a single concentration” value was “clear action of inhibiting cell death”.

Turning to `Cc1[nH]c2ccccc2c1C[C@@H](NC(=O)[C@@H](N)Cc1c[nH]cn1)C(=O)N[C@@H](C)C(=O)N[C@@H](Cc1c[nH]c2ccccc12)C(=O)N[C@H](Cc1ccccc1)C(=O)N[C@@H](CCCCN)C(N)=O` [hexarelin, L-histidyl-2-methyl-D-tryptophyl-L-alanyl-L-tryptophyl-D-phenylalanyl-L-lysineamide, reference compound] (H-H[dTrp(2-Me)]AW[dF]K-NH2), the “inhibition … at a single concentration” value in series [1] is given as “clear action of inhibiting cell death”.

Values taken from patent US20030100494A1, “Nerve protective drugs” (priority 1999, published 2003).
